Source: BindingDB's records for patent US11802133 (Hoffmann-La Roche, 2023)
pIC50: −log10 of the molar value.

Target: T1, Monoglyceride lipase (Homo sapiens, UniProt Q99685)
T1 sequence (Q99685 whole entry): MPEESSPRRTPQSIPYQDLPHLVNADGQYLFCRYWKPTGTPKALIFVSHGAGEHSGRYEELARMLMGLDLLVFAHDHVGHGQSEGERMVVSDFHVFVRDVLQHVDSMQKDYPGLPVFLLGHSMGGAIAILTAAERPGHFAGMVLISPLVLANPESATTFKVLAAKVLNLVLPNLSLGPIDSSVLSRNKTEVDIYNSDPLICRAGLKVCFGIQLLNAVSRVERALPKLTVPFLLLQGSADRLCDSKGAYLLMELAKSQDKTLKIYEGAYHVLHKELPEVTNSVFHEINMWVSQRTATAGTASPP
Experiment: MAGL Inhibitory Activity Assay
Description: The plate was shaked for 1 min at 2000 rpm (Variomag Teleshake) and then incubated for 15 min at RT. […] The final concentrations in the assay were 1 nM MAGL and 300 μM 4-Nitrophenylacetate. […] A second measurement was then done after incubation for 80 min at RT. From the two measurements, the slope was calculated by subtracting the first from the second measurement.

Row | pIC50 | SMILES
1 | 7.35 | O=C1CO[C@H]2CCN(C(=O)N3CC(OCc4cccc(OC(F)(F)F)c4)C3)C[C@H]2N1 [US11802133, Example 226]
2 | 7.52 | O=C1CO[C@H]2CCN(C(=O)N3CC(CCc4ccc(O)cc4C(F)(F)F)C3)C[C@H]2N1 [US11802133, Example 293]
